Assay results published in patent publication US11124541B2, “Chimeric melanocortin ligands and methods of use thereof” (REGENTS OF THE UNIVERSITY OF MINNESOTA, priority 2016, dated 2021).
Values joined by “and” are separate entries in the source; they are usually repeats but may differ in a detail not shown here. Equal entries are not always repeated. “Also recorded” adds a separate entry of the source. Where two headings read alike, the source gives them in different places. One block for each molecule: values may come before it. Non-standard residues stand in square brackets, D forms with d. Residues, ends and D or L forms follow the SMILES beside them. No end group written: not given here. Dap = NC[C@H](N)C(=O)O

Columns and labels:
mMC3R [1] = biological target: T1, mMC3R (Mus musculus, UniProt P33033); parameters: expressed in transfected cells; host or cells: HEK293; settings: literature value; read-out: reported agonist potency at the mMC3R; cited from earlier work
T1 sequence (P33033 whole entry): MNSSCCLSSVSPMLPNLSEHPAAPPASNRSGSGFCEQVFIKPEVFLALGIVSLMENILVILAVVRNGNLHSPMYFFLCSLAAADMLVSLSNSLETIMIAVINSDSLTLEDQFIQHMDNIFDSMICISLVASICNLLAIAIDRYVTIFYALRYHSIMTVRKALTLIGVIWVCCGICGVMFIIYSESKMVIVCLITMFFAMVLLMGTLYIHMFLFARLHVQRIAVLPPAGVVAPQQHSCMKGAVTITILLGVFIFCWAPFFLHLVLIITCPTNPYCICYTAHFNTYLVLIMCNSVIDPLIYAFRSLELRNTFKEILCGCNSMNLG

mMC1R [2] = biological target: T2, mMC1R (Mus musculus, UniProt Q01727); parameters: expressed in transfected cells; host or cells: HEK293; settings: literature value; read-out: reported agonist potency at the mMC1R; cited from earlier work
T2 sequence (Q01727 whole entry): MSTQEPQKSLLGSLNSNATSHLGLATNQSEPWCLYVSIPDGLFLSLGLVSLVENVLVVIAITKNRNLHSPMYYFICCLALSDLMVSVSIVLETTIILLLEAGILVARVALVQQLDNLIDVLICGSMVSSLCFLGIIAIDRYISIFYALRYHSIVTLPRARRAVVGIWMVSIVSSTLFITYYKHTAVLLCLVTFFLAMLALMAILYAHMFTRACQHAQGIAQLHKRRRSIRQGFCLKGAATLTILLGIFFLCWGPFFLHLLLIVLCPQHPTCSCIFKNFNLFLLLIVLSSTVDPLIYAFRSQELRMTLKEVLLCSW

mMC5R [3] = biological target: T3, mMC5R (Mus musculus, UniProt P41149); parameters: expressed in transfected cells; host or cells: HEK293; settings: literature value; read-out: reported agonist potency at the mMC5R; cited from earlier work
T3 sequence (P41149 whole entry): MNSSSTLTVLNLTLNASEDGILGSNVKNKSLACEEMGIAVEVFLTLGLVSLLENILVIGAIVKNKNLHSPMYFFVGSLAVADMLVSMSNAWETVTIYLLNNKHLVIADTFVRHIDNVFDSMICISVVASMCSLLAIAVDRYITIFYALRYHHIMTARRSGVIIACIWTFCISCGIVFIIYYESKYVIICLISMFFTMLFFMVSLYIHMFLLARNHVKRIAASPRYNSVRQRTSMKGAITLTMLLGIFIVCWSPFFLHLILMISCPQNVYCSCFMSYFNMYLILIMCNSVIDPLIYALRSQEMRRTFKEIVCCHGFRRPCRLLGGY

mMC4R [4] = biological target: T4, mMC4R (Mus musculus, UniProt P56450); parameters: expressed in transfected cells; host or cells: HEK293; settings: cited from earlier work; for reported selectivity for the mMC4R over the mMC3R: literature chimeric ligands; for EC50: literature value, read-out: reported agonist potency at the mMC4R
T4 sequence (P56450 whole entry): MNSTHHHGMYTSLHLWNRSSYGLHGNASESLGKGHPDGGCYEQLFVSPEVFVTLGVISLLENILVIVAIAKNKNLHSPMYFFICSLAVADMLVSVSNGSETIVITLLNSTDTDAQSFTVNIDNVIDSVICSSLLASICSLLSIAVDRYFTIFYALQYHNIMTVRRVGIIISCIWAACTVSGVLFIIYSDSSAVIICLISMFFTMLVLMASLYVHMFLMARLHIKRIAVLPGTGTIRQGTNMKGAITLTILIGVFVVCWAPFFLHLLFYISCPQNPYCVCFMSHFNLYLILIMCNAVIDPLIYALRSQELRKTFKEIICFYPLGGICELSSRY

mMC4R [5] = biological target: T4, mMC4R; parameters: expressed in transfected cells; host or cells: HEK293; settings: AGRP intrinsic potency; cited from earlier work
mMC3R [6] = biological target: T1, mMC3R; test: cAMP AlphaScreen agonist assay, HEK293 cells stably expressing mouse MC3R; settings: for EC50: read-out: mMC3R EC50, agonist, cAMP; for mMC3R percent maximal stimulatory response at 100 μM: no EC50 determinable, relative to NDP-MSH; for agonist activity/efficacy at mMC3R (in words): concentrations up to 100 μM
male mice = test: ICV or IT administration in male mice monitored in TSE metabolic cages; format: in vivo
Excerpt: As described herein, compound 2 (c[Pro-His-DPhe-Arg-Trp-Dap-Ala-DPro] (SEQ ID NO:4)) has been administered in male mice. This compound has been administered via a cannula directly into the brain (ICV administration) or through an injection into the spinal cord (IT administration), at three different doses each administration route (2 nmol, 5 nmol, and 10 nmol). After compound administration, the mice were monitored in TSE metabolic cages, which record food intake, water intake, ambulatory activity (how many times a mouse breaks a light beam, which can give an indication of toxicity), respiratory-exchange ratio (RER, ratio between amount of CO2 produced in metabolism and O2 consumed, giving an indication if fat [RER value closer to 0.7] or carbohydrates [RER value closer to 1] is the energy source being utilized), and energy expenditure.

mMC4R [7] = biological target: T4, mMC4R; test: cAMP AlphaScreen agonist assay, HEK293 cells stably expressing mouse MC4R; settings: for EC50: read-out: mMC4R EC50, agonist, cAMP; for mMC4R percent maximal stimulatory response at 100 μM: no EC50 determinable, relative to NDP-MSH; for agonist activity/efficacy at mMC4R (in words): concentrations up to 100 μM
mMC5R [8] = biological target: T3, mMC5R; test: cAMP AlphaScreen agonist assay, HEK293 cells stably expressing mouse MC5R; settings: for EC50: read-out: mMC5R EC50, agonist, cAMP
mMC1R [9] = biological target: T2, mMC1R; test: cAMP AlphaScreen agonist assay, HEK293 cells stably expressing mouse MC1R; settings: for EC50: read-out: mMC1R EC50, agonist, cAMP; for agonist activity/efficacy at mMC1R (in words): concentrations up to 100 μM
[10] = compound versus vehicle treated animals

Molecule: Tyr-c[Cys-His-DPhe-Arg-Trp-Asn-Ala-Phe-Cys]-Tyr-NH2 (FRWNAFC; not fully specified; Tyr-Cys-His, disulfide, Tyr-NH2; printed: Phe-Arg-Trp-Asn-Ala-Phe-Cys) [previously reported disulfide bridged AGRP/NDP-MSH chimeric ligand]
EC50 (mMC3R [1]): 2 nM
EC50 (mMC1R [2]): 0.35 nM
EC50 (mMC5R [3]): 2 nM
reported selectivity for the mMC4R over the mMC3R (mMC4R [4]): 7 fold
EC50 (mMC4R [4]): 0.3 nM

Molecule: AGRP: agouti-related protein, naturally occurring melanocortin antagonist (SSRRCVRLHESCLGQQVPCCDPCATCYCRFFNAFCYCRKLGTAMNPCSRT; ends and bridges not checked; cysteine pairing not given here; UniProt O00253 83-132, looked up)
lower potency at the mMC3R versus the mMC4R (mMC4R [5]): ~10 fold

Molecule: Tyr-c[Asp-His-DPhe-Arg-Trp-Asn-Ala-Phe-Dap]-Tyr-NH2 (FRWNAF; Tyr-Asp-His, Dap lactam, Tyr-NH2; printed: Phe-Arg-Trp-Asn-Ala-Phe-) [previously reported lactam bridged AGRP/NDP-MSH chimeric ligand]
EC50 (mMC3R [1]): 1 nM
EC50 (mMC1R [2]): 0.2 nM
EC50 (mMC5R [3]): 0.5 nM
reported selectivity for the mMC4R over the mMC3R (mMC4R [4]): 5 fold
EC50 (mMC4R [4]): 0.2 nM

Molecule: Ac-mini-(His-DPhe-Arg-Trp)hAGRP-NH2
EC50 (mMC3R [1]): 30 nM
EC50 (mMC1R [2]): 0.16 nM
EC50 (mMC5R [3]): 0.6 nM and 0.56 nM
EC50 (mMC4R [4]): 1.4 nM

Molecule: C[C@@H]1NC(=O)[C@H](CN)NC(=O)[C@H](Cc2c[nH]c3ccccc23)NC(=O)[C@H](CCCNC(=N)N)NC(=O)[C@@H](Cc2ccccc2)NC(=O)[C@H](Cc2c[nH]cn2)NC(=O)[C@@H]2CCCN2C(=O)[C@H]2CCCN2C1=O [MDE6-5-2c, c[Pro-His-DPhe-Arg-Trp-Dap-Ala-DPro]] (cyclo(H[dF]RW[Dap]A[dP]P))
cumulative food intake following ICV administration, 10 nmol (male mice; ICV, 10 nmol, 72 h): decreased food intake through 72 h
Respiratory Exchange Ratio (RER) effect, ICV 10 nmol (male mice; ICV, 10 nmol, first 24 h, versus lower doses): more robust
cumulative food intake following ICV administration (male mice; ICV, 2, 5, 10 nmol, first 24 h, dose response): further decreased food intake
Respiratory Exchange Ratio (RER), ICV 2 and 5 nmol (male mice; ICV, 2 and 5 nmol, first 24 h): decreased RER compared to vehicle control
Respiratory Exchange Ratio (RER) effect, IT administration (male mice; IT): more modest effect
cumulative food intake following IT administration (male mice; IT, 2, 5, 10 nmol, not dose-responsive): decreased food intake was observed
energy expenditure (male mice; [10]): not different
water intake (male mice; [10]): not different
duration of effects on RER following a single dose (male mice; single dose, all cases): 24 h

Further lines, with some results ahead:

EC50 (mMC3R [6]): 40 nM
ambulatory activity (male mice; [10]): not different
selectivity for the mMC4R over the mMC3R (mMC4R [7]; agonist potency): 25 fold
EC50 (mMC4R [7]): 1.6 nM
EC50 (mMC5R [8]): 0.3 nM
EC50 (mMC1R [9]): 1.1 nM
Molecule: C[C@@H]1NC(=O)[C@H](CN)NC(=O)[C@H](Cc2c[nH]c3ccccc23)NC(=O)[C@H](CCCNC(=N)N)NC(=O)[C@@H](Cc2ccccc2)NC(=O)[C@H](Cc2cnc[nH]2)NC(=O)[C@@H]2CCCN2C(=O)[C@H]2CCCN2C1=O [MDE6-5-2c, c[Pro-His-DPhe-Arg-Trp-Dap-Ala-DPro]] (cyclo(H[dF]RW[Dap]A[dP]P))

mMC3R percent maximal stimulatory response at 100 μM (mMC3R [6]): 60% @
mMC3R percent maximal stimulatory response at 100 μM (mMC3R [6]; listed as MDES-147-2c): 60%
agonist activity/efficacy at mMC3R (in words) (mMC3R [6]): partially stimulated
mMC4R percent maximal stimulatory response at 100 μM (mMC4R [7]): 65% @
mMC4R percent maximal stimulatory response at 100 μM (mMC4R [7]; listed as MDES-147-2c): 65%
EC50 (mMC5R [8]): 6000 nM
EC50 (mMC1R [9]): 900 ± 200 nM
Molecule: N=C(N)NCCC[C@@H]1NC(=O)[C@@H](Cc2ccccc2)NC(=O)[C@H](Cc2c[nH]cn2)NC(=O)[C@@H]2CCCN2C(=O)[C@H]2CCCN2C(=O)[C@H](Cc2c[nH]c3ccccc23)NC1=O [MDE5-147-2c, c[Pro-His-DPhe-Arg-Trp-DPro]] (cyclo(PH[dF]RW[dP]))
agonist activity/efficacy at mMC4R (in words) (mMC4R [7]): stimulated a fraction of the maximal NDP-MSH response

agonist activity/efficacy at mMC3R (in words) (mMC3R [6]): partially stimulated
EC50 (mMC4R [7]): 150 ± 10 nM
EC50 (mMC5R [8]): 48 nM
agonist activity/efficacy at mMC1R (in words) (mMC1R [9]): full agonist
EC50 (mMC1R [9]): 600 nM
Molecule: C[C@@H]1NC(=O)[C@H](CN)NC(=O)[C@H](Cc2c[nH]c3ccccc23)NC(=O)[C@H](CCCNC(=N)N)NC(=O)[C@@H](Cc2ccccc2)NC(=O)[C@@H]2CCCN2C(=O)[C@H]2CCCN2C1=O [MDE6-5-1c, c[Pro-DPhe-Arg-Trp-Dap-Ala-DPro]] (cyclo(P[dF]RW[Dap]A[dP]))

agonist activity/efficacy at mMC3R (in words) (mMC3R [6]): partially stimulated
decreased agonist potency at mMC4R relative to MDE6-5-2c (mMC4R [7]; relative to MDE6-5-2c): 593 fold
decreased agonist potency at mMC5R relative to MDE6-5-2c (mMC5R [8]; relative to MDE6-5-2c): 1,100 fold
decreased agonist potency at mMC1R relative to MDE6-5-2c (mMC1R [9]; relative to MDE6-5-2c): 418 fold
Molecule: N=C(N)NCCC[C@@H]1NC(=O)[C@@H](Cc2ccccc2)NC(=O)[C@H](Cc2c[nH]cn2)NC(=O)[C@@H]2CCCN2C(=O)[C@H]2CCCN2C(=O)[C@H](CN)NC(=O)[C@H](Cc2c[nH]c3ccccc23)NC1=O [MDE6-12-2c, c[Pro-His-DPhe-Arg-Trp-Dap-DPro]] (cyclo(PH[dF]RW[Dap][dP]))

agonist activity/efficacy at mMC3R (in words) (mMC3R [6]): full agonist
EC50 (mMC3R [6]): 260 nM
agonist activity/efficacy at mMC4R (in words) (mMC4R [7]): partial agonist
EC50 (mMC4R [7]): 23 nM
EC50 (mMC5R [8]): 18 ± 2 nM
agonist activity/efficacy at mMC1R (in words) (mMC1R [9]): full agonist
EC50 (mMC1R [9]): 24 nM
decreased agonist potency at mMC1R relative to MDE5-149-2c (mMC1R [9]): 70 fold
Molecule: C[C@@H]1NC(=O)[C@H](CN)NC(=O)[C@H](Cc2c[nH]c3ccccc23)NC(=O)[C@H](CCCNC(=N)N)NC(=O)[C@@H](Cc2ccccc2)NC(=O)[C@H](Cc2c[nH]cn2)NC(=O)[C@@H]2CCCN2C(=O)[C@H]2CCCN2C(=O)[C@H](Cc2ccccc2)NC1=O [MDE5-151-2c, c[Pro-His-DPhe-Arg-Trp-Dap-Ala-Phe-DPro]] (cyclo(PH[dF]RW[Dap]AF[dP]))

EC50 (mMC3R [6]): 510 nM
decreased agonist potency at mMC4R relative to MDE5-149-2c (mMC4R [7]; relative to MDE5-149-2c): 121 fold
decreased agonist potency at mMC5R relative to MDE5-149-2c (mMC5R [8]; relative to MDE5-149-2c): 37 fold
decreased agonist potency at mMC1R relative to MDE5-149-2c (mMC1R [9]): 143 fold
Molecule: N=C(N)NCCC[C@@H]1NC(=O)[C@@H](Cc2ccccc2)NC(=O)[C@H](Cc2c[nH]cn2)NC(=O)[C@@H]2CCCN2C(=O)[C@H]2CCCN2C(=O)[C@H](CC(N)=O)NC(=O)[C@H](Cc2c[nH]c3ccccc23)NC1=O [MDE6-10-2c, c[Pro-His-DPhe-Arg-Trp-Asn-DPro]] (cyclo(PH[dF]RWN[dP]))

decreased potency at mMC4R relative to MDE5-149-1c (mMC4R [7]; decrease relative to MDE5-149-1c): 8 fold
EC50 (mMC4R [7]): 1100 nM
agonist activity/efficacy at mMC5R (in words) (mMC5R [8]; concentrations up to 100 μM): partially stimulated
selectivity for the mMC1R over the mMC3R (mMC1R [9]; agonist potency): > 2500 fold
selectivity for the mMC1R over the mMC5R (mMC1R [9]; agonist potency): > 1000 fold
increased agonist potency at mMC1R over MDE5-149-1c (mMC1R [9]; increase over MDE5-149-1c): 10 fold
EC50 (mMC1R [9]): 40 nM
Molecule: N=C(N)NCCC[C@@H]1NC(=O)[C@@H](Cc2ccccc2)NC(=O)[C@@H]2CCCN2C(=O)[C@H]2CCCN2C(=O)[C@H](CC(N)=O)NC(=O)[C@H](Cc2c[nH]c3ccccc23)NC1=O [MDE6-10-1c, c[Pro-DPhe-Arg-Trp-Asn-DPro]] (cyclo(P[dF]RWN[dP]))
agonist activity/efficacy at mMC3R (in words) (mMC3R [6]): no agonist activity; also recorded: did not possess agonist activity
